Results reported in US6174881A, “Hydroxymethylimidazodiazepines and their esters” (Hoffman-La Roche Inc., priority 1995, dated 2001).

Experiments:
[1] = target: central benzodiazepine receptors; experiment: inhibition of the binding of tritiated flumazenil to the specific benzodiazepine receptors in the cortex of rats; settings: 50% inhibition of specific binding of tritiated flumazenil, rat cortex; read-out: Affinity to benzodiazepine receptors IC50
Procedure: The affinity of compounds of general formula I to the central benzodiazepine receptors was established in vitro according to the methods described in Nature 294, 763-765 (1981) and J. Neurochemistry 37, 714-722 (1981). According to these methods the inhibition of the binding of tritiated flumazenil to the specific benzodiazepine receptors in the cortex of rats by the respective test substances is determined. The IC50 ("50% inhibiting concentration") denotes that concentration of the respective test substance which brings about a 50 percent inhibition of the specific binding of tritiated flumazenil to the specific benzodiazepine receptors in the cortex of rats.

mice = experiment: rotating rod test in mice (sedative/muscle relaxant properties), i.v.; type: in vivo, mouse; settings: for ED50: Mus musculus, iv
Procedure: The sedative/muscle relaxant properties of the compounds of formula II in accordance with the invention can be determined, for example, in the rotating rod test. Mice weighing 19-21 g are used for this test. They have free access to feed and drinking water up to 1 hour prior to the beginning of the test. They are brought into the test laboratory at least 30 minutes prior to the test. In the rotating rod test the animals are placed on a horizontally arranged, smooth metal rod having a diameter of 3 cm., which is rotated at 2 revolutions per minute. Initially, the animals are given the opportunity of familiarizing themselves with the test situation for 30 seconds. Subsequently, those animals which succeed in remaining on the rod for at least 1 minute are selected. The test preparations are then administered intraveneously to these animals in different dosages. At various points in time it is then determined whether the animals are able to remain for a minimum period on the rod (minimum period: 10 seconds, 1 minute from 5 minutes after administration). That dosage at which 50% of the animals are capable of remaining on the rod is determined (ED50).

[2] = 15 s, minimum time 10 sec, 15 sec after administration
[3] = 0.5 min, minimum time 10 sec, 30 sec after administration
[4] = 1 min, minimum time 10 sec, 60 sec after administration
[5] = 2 min, minimum time 10 sec, 2 min after administration
[6] = 5 min, minimum time 60 sec, 5 min after administration
[7] = 0.25 h, minimum time 60 sec, 15 min after administration
[8] = 0.5 h, minimum time 60 sec, 30 min after administration
[9] = 1 h, minimum time 60 sec, 60 min after administration

## OCc1cn2c(n1)CN=C(c1ccccc1)c1cc(C(F)(F)F)ccc1-2 [F, 8-Trifluoromethyl-6-phenyl-4H-imidazo[1,2-a][1,4]benzodiazepine-2 methanol]
[1]
  IC50: 12 nM
mice; [2]
  ED50: 1 mg/kg
mice; [3]
  ED50: 1.1 mg/kg
mice; [4]
  ED50: 1.1 mg/kg
mice; [5]
  ED50: > 3.2 mg/kg
mice; [6]
  ED50: 1 mg/kg
mice; [7]
  ED50: 0.9 mg/kg
mice; [8]
  ED50: 1.1 mg/kg
mice; [9]
  ED50: 1.8 mg/kg

## OCc1cn2c(n1)CN=C(c1ccccc1F)c1cc(I)ccc1-2 [H, 6-(2-Fluorophenyl)-8-iodo-4H-imidazo[1,2-a][1,4]benzodiazepine-2 methanol]
[1]
  IC50: 2.07 nM
mice; [2]
  ED50: 0.1 mg/kg
mice; [3]
  ED50: 0.06 mg/kg
mice; [4]
  ED50: 0.09 mg/kg
mice; [5]
  ED50: 0.1 mg/kg
mice; [6]
  ED50: 0.1 mg/kg
mice; [7]
  ED50: 0.1 mg/kg
mice; [8]
  ED50: ≥ 1 mg/kg
mice; [9]
  ED50: > 1 mg/kg

## OCc1cn2c(n1)CN=C(c1ccccc1F)c1cc(Cl)ccc1-2 [C, 8-Chloro-6-(2-fluorophenyl)-4H-imidazo[1,2-a]benzodiazepine-2-methanol]
[1]
  IC50: 1.7 nM
mice; [2]
  ED50: 0.1 mg/kg
mice; [3]
  ED50: 0.3 mg/kg
mice; [4]
  ED50: 0.3 mg/kg
mice; [5]
  ED50: ≥ 10 mg/kg
mice; [6]
  ED50: 0.8 mg/kg
mice; [7]
  ED50: 0.4 mg/kg
mice; [8]
  ED50: 1.1 mg/kg
mice; [9]
  ED50: ≥ 10 mg/kg

## OCc1cn2c(n1)CN=C(c1ccccn1)c1cc(Br)ccc1-2 [I, 8-Bromo-6-(2-pyridyl)-4H-imidazo[1,2-a][1,4]benzodiazepine-2 methanol]
[1]
  IC50: 40 nM
mice; [2]
  ED50: 1.5 mg/kg
mice; [3]
  ED50: 2 mg/kg
mice; [4]
  ED50: 3 mg/kg
mice; [5]
  ED50: > 10 mg/kg
mice; [6]
  ED50: 1.4 mg/kg
mice; [7]
  ED50: 1.8 mg/kg
mice; [8]
  ED50: 3 mg/kg
mice; [9]
  ED50: ≥ 10 mg/kg

## O=[N+]([O-])c1ccc2c(c1)C(c1ccccc1F)=NCc1nc(CO)cn1-2 [G, 6-(2-Fluorophenyl)-8-nitro-4H-imidazo[1,2-a][1,4]benzodiazepine-2 methanol]
[1]
  IC50: 2.3 nM
mice; [2]
  ED50: 0.2 mg/kg
mice; [3]
  ED50: 0.2 mg/kg
mice; [4]
  ED50: 0.3 mg/kg
mice; [5]
  ED50: 0.3 mg/kg
mice; [6]
  ED50: 0.1 mg/kg
mice; [7]
  ED50: 0.2 mg/kg
mice; [8]
  ED50: 0.2 mg/kg
mice; [9]
  ED50: ≥ 1 mg/kg

## OCc1cn2c(n1)CN=C(c1ccccc1Cl)c1cc(Cl)ccc1-2 [E, 8-Chloro-6-(2-chlorophenyl)-4H-imidazo[1,2-a][1,4]benzodiazepine-2 methanol]
[1]
  IC50: 1.2 nM
mice; [2]
  ED50: ≤ 0.32 mg/kg
mice; [3]
  ED50: 0.4 mg/kg
mice; [4]
  ED50: 0.5 mg/kg
mice; [5]
  ED50: 3.2 mg/kg
mice; [6]
  ED50: 0.9 mg/kg
mice; [7]
  ED50: 0.5 mg/kg
mice; [8]
  ED50: ≥ 3.2 mg/kg
mice; [9]
  ED50: ≥ 3.2 mg/kg

## CC(=O)OCc1cn2c(n1)CN=C(c1ccccc1F)c1cc(Cl)sc1-2 [B]
[1]
  IC50: 6 nM
mice; [2]
  ED50: 0.6 mg/kg
mice; [3]
  ED50: 0.7 mg/kg
mice; [4]
  ED50: 1.2 mg/kg
mice; [5]
  ED50: 1 mg/kg
mice; [6]
  ED50: ≥ 10 mg/kg
mice; [7]
  ED50: ≥ 10 mg/kg
mice; [8]
  ED50: ≥ 10 mg/kg
mice; [9]
  ED50: > 10 mg/kg

## C=CCNCc1c(CO)nc2n1-c1ccc(Cl)cc1C(c1ccccc1F)=NC2 [D, 1-Allylaminomethyl-8-chloro-6-(2-fluorophenyl)-4H-imidazo[1,2-a][1,4]benzodiazepine-2-methanol]
[1]
  IC50: 5.6 nM
mice; [2]
  ED50: 2.5 mg/kg
mice; [3]
  ED50: 3 mg/kg
mice; [4]
  ED50: 3.2 mg/kg
mice; [5]
  ED50: 3.2 mg/kg
mice; [6]
  ED50: 2.1 mg/kg
mice; [7]
  ED50: 1.8 mg/kg
mice; [8]
  ED50: ≥ 10 mg/kg
mice; [9]
  ED50: > 10 mg/kg

## 2-Chloro-4-(2-fluorophenyl)-8,9-dihydro-6H-imidazo[1,2-a]thieno[3,2-f][1,4]diazepine-8-methanol
[1]
  IC50: 2.6 nM
mice; minimum time 10 sec, 15 sec after administration, 0.25 min
  Rotating rod test, ED50: 0.5 mg/kg
mice; minimum time 10 sec, 30 sec after administration, 0.5 min
  Rotating rod test, ED50: 0,7 mg/kg
mice; minimum time 10 sec, 60 sec after administration, 1 min
  Rotating rod test, ED50: 0.6 mg/kg
mice; minimum time 10 sec, 2 min after administration
  Rotating rod test, ED50: 1.2 mg/kg
mice; minimum time 60 sec, 5 min after administration
  Rotating rod test, ED50: 2.3 mg/kg
mice; minimum time 60 sec, 15 min after administration
  Rotating rod test, ED50: 5.3 mg/kg
mice; minimum time 60 sec, 30 min after administration
  Rotating rod test, ED50: ≥ 10 mg/kg
mice; minimum time 60 sec, 60 min after administration
  Rotating rod test, ED50: > 10 mg/kg
